Test results from ChEMBL document CHEMBL3301361, “Experimental in vitro DMPK and physicochemical data on a set of publicly disclosed compounds”.
Values after ≈ are worked out from the molar mass of the structure shown.

Key:
physchem [1] = conditions: pH 7.4 buffer
in vitro [2] = conditions: hepatocytes
physchem [3] = conditions: octan-1-ol/water, pH 7.4, LogD7.4
in vitro [4] = conditions: human, hepatocytes
in vitro [5] = conditions: human, plasma, PPB
in vitro [6] = conditions: SD, HW or BN, rat, plasma
in vitro [7] = conditions: human

Row | Structure (SMILES) | solubility thermodynamic (physchem [1]) [µM] | hepatocyte CLint (in vitro [2]) [µL/min/1e6 cells] | logD (physchem [3]) | hepatocyte CLint (in vitro [4]) [µL/min/1e6 cells] | fraction unbound at 5 h (in vitro [5]) | fraction unbound at 5 h (in vitro [6]) | microsomal CLint (in vitro [7]; microsomes) [µL/min/mg] | microsomal CLint (in vitro [7]; liver microsomes) [µL/min/mg]
1 | C=CC(=O)Nc1cccc(Oc2nc(Nc3ccc(N4CCN(C)CC4)cc3OC)ncc2Cl)c1 | 1 (≈ 0.495 µg/mL) | 79.4 | 3.9 | 3.31 | – | – | – | –
2 | COc1ccccc1-c1csc(-n2ncc(C#N)c2N)n1 | – | – | – | 55 | 0.591 | 0.529 | – | –
3 | O=C(Nc1nc2ccccc2s1)c1ccccc1 | – | 64.6 | – | 77.6 | – | – | > 150 | –
4 | O=C(O)COc1ccc(C(F)(F)F)cc1CN1CCN(S(=O)(=O)c2ccccc2)CC1 | – | < 3 | – | < 3 | – | – | – | 6.33
5 | O=C(O)CCc1ccc(OCc2cccc(Br)c2)cc1 | – | > 150 | 1.67 | 129 | – | – | – | < 3
6 | N#CCC(CNc1ncc(C(F)(F)F)cc1Cl)OC(=O)c1c(F)cccc1F (stereo not drawn) | – | > 150 | – | > 150 | – | – | – | > 150
7 | O=c1[nH]c2c(O)ccc([C@@H](O)CNCCc3ccc(CNCCc4ccccn4)cc3)c2s1 | – | – | -0.25 | < 3 | – | 0.483 | – | –
8 | O=c1[nH]c2c(O)ccc([C@@H](O)CNCCc3cccc(CNCCc4c(Cl)cccc4Cl)c3)c2s1 | – | 78 | 3.15 | 5.17 | – | – | – | 63
9 | CCOC(=O)/C=C/[C@H](C[C@@H]1CCNC1=O)NC(=O)[C@@H](CC(=O)[C@@H](NC(=O)c1cc(C)on1)C(C)C)Cc1ccc(F)cc1 | – | > 150 | 2.8 | 40.7 | – | – | – | 105
10 | O=C(Nc1cc(-c2ccnc(Nc3ccccc3)c2)ccn1)C1CCOCC1 | – | > 150 | 3.7 | 16.2 | – | – | – | 12.6
11 | NC1(c2ccc(-c3nn4ccnc4cc3-c3ccccc3)cc2)CCC1 | – | > 150 | – | 7.76 | – | – | – | –
12 | NC1(c2ccc(-c3nc4ccccn4c3-c3ccccc3)cc2)CCC1 | – | > 150 | – | 18.2 | – | – | – | –
13 | NC1(c2ccc(-c3ncc4nccn4c3-c3ccccc3)cc2)CCC1 | – | 16.2 | – | < 3 | – | – | – | –
14 | O=C(CCCc1ccc2cccnc2n1)NCc1cc(-c2ccc(F)c(C(F)(F)F)c2)no1 | – | – | – | 19.9 | 0.0009 | 0.0119 | – | –
15 | Cc1nn(C)c2cc(N3CCN(C(=O)[C@@H]4CCCC[C@H]4C(=O)NC4(C#N)CC4)[C@H](C)C3)ccc12 | – | 8.13 | – | 7.41 | – | – | – | –
16 | N#Cc1ccc(OC2CCN(C[C@H](O)CNC(=O)c3c[nH]c(=O)c4ccccc34)CC2)cc1Cl | – | 15 | 2.56 | < 3 | 0.197 | – | – | –
17 | C[C@H](CO)Nc1nc(SCc2ccccc2F)nc2nc(N)sc12 | – | 19 | 3.12 | 5.75 | – | – | 8.13 | –
18 | CCC[C@H](CO)Nc1nc(S[C@@H](C)c2cccc(C#N)c2)nc2[nH]c(=O)sc12 | – | – | 3.7 | 22.4 | 0.0007 | 0.0008 | – | 52.5
19 | Cn1sc(=O)c2cc(S(N)(=O)=O)ccc21 | – | 17.4 | 0.3 | 27.5 | – | – | – | –
20 | O=c1[nH]c2ccccc2n1C1CCN(Cc2ccc(-c3nc4ccccc4cc3-c3ccccc3)cc2)CC1 | – | 35.5 | – | < 3 | – | – | – | –

Row | Structure (SMILES) | solubility thermodynamic (physchem [1]) [µM] | hepatocyte CLint (in vitro [2]) [µL/min/1e6 cells] | logD (physchem [3]) | hepatocyte CLint (in vitro [4]) [µL/min/1e6 cells] | fraction unbound at 5 h (in vitro [5]) | fraction unbound at 5 h (in vitro [6]) | microsomal CLint (in vitro [7]; microsomes) [µL/min/mg] | microsomal CLint (in vitro [7]; liver microsomes) [µL/min/mg]
21 | CC(CO)(CO)Nc1nc(SCc2cccc(F)c2F)nc2nc(N)sc12 | – | 7 | 2.87 | 4.92 | 0.129 | – | – | –
22 | Cc1ccc(NC(=O)c2cccc(N(C)S(C)(=O)=O)c2)cc1NC(=O)c1ccc2ncccc2c1 | – | 72.4 | – | < 3 | – | – | – | –
23 | COC(=O)c1ccc(C)c(NS(=O)(=O)c2ccc3c(c2)c(=O)sn3C)c1 | – | > 150 | 2.6 | > 150 | – | – | – | –
24 | COC(=O)C1=C(C)NC(C)=C(C(=O)OC(C)C)[C@@H]1c1cccc2nonc12 [(R)-ISRADIPINE] | – | > 150 | 3.77 | 126 | – | – | – | –
25 | C=CCc1ccccc1OCC(O)CNC(C)C (stereo not drawn) [ALPRENOLOL] | – | > 150 | 0.99 | 13.2 | – | – | – | –
26 | CN(C)CCCOc1nn(Cc2ccccc2)c2ccccc12 [BENZYDAMINE] | – | > 150 | 2.4 | 7.76 | – | – | 17.8 | –
27 | COc1ccccc1Oc1c(NS(=O)(=O)c2ccc(C(C)(C)C)cc2)nc(-c2ncccn2)nc1OCCO [BOSENTAN] | – | – | 1.03 | 4.79 | 0.013 | 0.0122 | – | 15.1
28 | CCc1cccc2cc(C(O)CNC(C)(C)C)oc12 (stereo not drawn) [BUFURALOL] | – | > 150 | – | 8.71 | 0.0801 | – | – | –
29 | COc1ccccc1OCCNCC(O)COc1cccc2[nH]c3ccccc3c12 (stereo not drawn) [CARVEDILOL] | – | – | – | 26.3 | – | 0.0262 | 41.7 | –
30 | CCOc1ccc2ccc(=O)oc2c1 [ETHOXYCOUMARIN] | 1000 (≈ 190 µg/mL) | 64.6 | 2.2 | 35.5 | – | – | – | –
31 | C#Cc1cccc(Nc2ncnc3cc4c(cc23)OCCOCCOCCO4)c1 [ICOTINIB] | – | 21.9 | – | 3.55 | – | – | – | –
32 | CC1Cc2ccccc2N1NC(=O)c1ccc(Cl)c(S(N)(=O)=O)c1 (stereo not drawn) [INDAPAMIDE] | 151 (≈ 55.4 µg/mL) | 13.2 | 1.83 | 4.9 | 0.204 | – | – | –
33 | CCN1CCN(c2ccc(Nc3cc(N(C)C(=O)Nc4c(Cl)c(OC)cc(OC)c4Cl)ncn3)cc2)CC1 [INFIGRATINIB] | 0.5 (≈ 0.28 µg/mL) | 87.1 | 3.7 | 28.8 | – | – | – | –
34 | CS(=O)(=O)N1CCc2c(-c3cnc(N)nc3)nc(N3CCOCC3)nc21 [IZORLISIB] | 1.7 (≈ 0.642 µg/mL) | 5.37 | 1.2 | < 3 | – | – | – | –
35 | Cc1oncc1C(=O)Nc1ccc(C(F)(F)F)cc1 [LEFLUNOMIDE] | 67.6 (≈ 18.3 µg/mL) | 24 | 3.9 | < 3 | – | – | – | –
36 | C[C@H]1C[C@@H]2[C@H]([C@@H](O)C[C@@]3(C)[C@H]2CC[C@]3(O)C(=O)CO)[C@@]2(C)C=CC(=O)C=C12 [METHYLPREDNISOLONE] | – | > 150 | 2.12 | 9.12 | 0.201 | – | – | –
37 | CCS(=O)(=O)CCCC12CCC(c3nnc(-c4ccccc4C(F)(F)F)n3C)(CC1)CC2 [MK-0736] | – | < 3 | – | < 3 | – | – | – | < 3
38 | CNC(=O)c1ccc(C)c(-n2c(C)cc(OCc3ccc(F)cc3F)c(Br)c2=O)c1 [PH-797804] | 21.4 (≈ 10.2 µg/mL) | – | 2.8 | < 3 | – | 0.0183 | – | –
39 | CO[C@H]1C[C@@H]2CC[C@@H](C)[C@@](O)(O2)C(=O)C(=O)N2CCCC[C@H]2C(=O)O[C@H]([C@H](C)C[C@@H]2CC[C@@H](O)[C@H](OC)C2)CC(=O)[C@H](C)/C=C(\C)[C@@H](O)[C@@H](OC)C(=O)[C@H](C)C[C@H](C)/C=C/C=C/C=C/1C [SIROLIMUS] | – | > 150 | – | 50.1 | – | – | – | –
40 | CCCCNC(=O)NS(=O)(=O)c1ccc(C)cc1 [TOLBUTAMIDE] | – | 6.61 | – | 6.31 | – | – | 6.31 | –
